“And” between values parts separate entries of the source, which are not always exact repeats. Identical values can stand only once. Records with an inconclusive call do not appear.
Tested on: MX-1 breast xenograft, nude mice, tumor weight T/C
Test: NCI In Vivo Anticancer Drug Screen. Data for tumor model Human Mammary Carcinoma MX-1 Xenograft (intrarenal inoculation) in NU/NU Swiss (nude) mice
Settings: endpoint: mean tumor weight change, higher = larger tumour
Method: The antitumor activity of compounds was measured in mice bearing transplantable tumors. Survival or tumor size were measured and the results are expressed as the measurement made in the treated group (T) divided by the measurement made in the vehicle treated control group (C). The tumor model used in this assay is Human Mammary Carcinoma MX-1 Xenograft (intrarenal inoculation) in NU/NU Swiss (nude) mice

[1] = dose: 150.0 mg/kg/injection, schedule: Q04DX003 (sc), vehicle: Klucel (hydroxypropylcellulose) (HPC)
[2] = dose: 300.0 mg/kg/injection, schedule: Q04DX003 (sc), vehicle: saline with Tween-80
[3] = dose: 100.0 mg/kg/injection, schedule: Q01DX010 (sc), vehicle: saline
[4] = dose: 200.0 mg/kg/injection, schedule: Q01DX010 (sc), vehicle: saline
[5] = dose: 400.0 mg/kg/injection, schedule: Q01DX010 (sc), vehicle: Klucel (hydroxypropylcellulose) (HPC)
[6] = dose: 800.0 mg/kg/injection, schedule: Q01DX010 (sc), vehicle: Klucel (hydroxypropylcellulose) (HPC)
[7] = dose: 400.0 mg/kg/injection, schedule: Q01DX010 (sc), vehicle: saline
[8] = dose: 300.0 mg/kg/injection, schedule: Q04DX003 (sc), vehicle: suspension in saline
[9] = dose: 600.0 mg/kg/injection, schedule: Q04DX003 (sc), vehicle: suspension in saline
[10] = dose: 1200.0 mg/kg/injection, schedule: Q04DX003 (sc), vehicle: suspension in saline

Which results are given for O=C(CCBr)N1CCN(C(=O)CCBr)CC1?
T/C (dose: 4.5 mg/kg/injection, schedule: Q01DX010 (sc), vehicle: Klucel (hydroxypropylcellulose) (HPC)): 111 % of control; T/C (dose: 12.5 mg/kg/injection, schedule: Q01DX010 (sc), vehicle: Klucel (hydroxypropylcellulose) (HPC)): 52 % of control; T/C (dose: 18.0 mg/kg/injection, schedule: Q01DX010 (sc), vehicle: Klucel (hydroxypropylcellulose) (HPC)): 33 % of control and 48 % of control; T/C (dose: 25.0 mg/kg/injection, schedule: Q01DX010 (sc), vehicle: Klucel (hydroxypropylcellulose) (HPC)): 19 % of control; T/C (dose: 36.0 mg/kg/injection, schedule: Q01DX010 (sc), vehicle: Klucel (hydroxypropylcellulose) (HPC)): 1 % of control and 9 % of control

With C[n+]1ccc(Nc2ccc(NC(=O)c3ccc(Nc4cc[n+](C)c5ccc(N)cc45)cc3)cc2)cc1 as the compound, how does the T/C (dose: 50.0 mg/kg/injection, schedule: Q04DX003 (sc), vehicle: distilled water + Tween-80) read?
Its T/C is 59 % of control.

Which T/C (dose: 7.5 mg/kg/injection, schedule: Q04DX003 (sc), vehicle: saline) does the source give for ClCCCN1CCN(CCCl)CC1 here?
The T/C was 8 % of control and 10 % of control and 31 % of control.

C1CCC2C[N-]CCC2C1.C1CCC2C[N-]CCC2C1.C1CCC2C[N-]CCC2C1.C1CCC2C[N-]CCC2C1.[Cl][Rh][Cl] (centres undefined) was tested. Which T/C (dose: 18.0 mg/kg/injection, schedule: Q04DX003 (sc), vehicle: saline with Tween-80) did it give?
Its T/C is 107 % of control.

What about the T/C (dose: 36.0 mg/kg/injection, schedule: Q04DX003 (sc), vehicle: saline with Tween-80) of the same compound?
The T/C was 103 % of control.

What about the T/C (dose: 72.0 mg/kg/injection, schedule: Q04DX003 (sc), vehicle: saline with Tween-80) of the same compound?
Its T/C is 86 % of control.

And the T/C (dose: 144.0 mg/kg/injection, schedule: Q04DX003 (sc), vehicle: saline with Tween-80)?
Its T/C is 78 % of control.

What does the source list for CC[n+]1c(-c2ccccc2)c2cc(N)ccc2c2ccc(N)cc21?
T/C (dose: 15.0 mg/kg/injection, schedule: Q04DX003 (sc), vehicle: saline): 119 % of control; T/C (dose: 30.0 mg/kg/injection, schedule: Q04DX003 (sc), vehicle: saline): 110 % of control; T/C (dose: 60.0 mg/kg/injection, schedule: Q04DX003 (sc), vehicle: saline): 83 % of control

Which results are given for CCN(CC)c1ccc2cc(-c3nc4ccccc4n3C)c(=O)oc2c1?
T/C (dose: 75.0 mg/kg/injection, schedule: Q04DX003 (sc), vehicle: Klucel (hydroxypropylcellulose) (HPC)): 119 % of control; T/C [1]: 104 % of control; T/C (dose: 300.0 mg/kg/injection, schedule: Q04DX003 (sc), vehicle: Klucel (hydroxypropylcellulose) (HPC)): 123 % of control

With COC(=O)Nc1ccc(Cc2ccc(NC(=O)OC)cc2)cc1 as the compound, how does the T/C [2] read?
The T/C was 87 % of control.

What about the T/C (dose: 600.0 mg/kg/injection, schedule: Q04DX003 (sc), vehicle: saline with Tween-80) of the same compound?
Its T/C is 119 % of control.

What about the T/C (dose: 1200.0 mg/kg/injection, schedule: Q04DX003 (sc), vehicle: saline with Tween-80) of the same compound?
Its T/C is 65 % of control.

What about the T/C (dose: 2400.0 mg/kg/injection, schedule: Q04DX003 (sc), vehicle: saline with Tween-80) of the same compound?
Its T/C is 48 % of control.

What does the source list for C1CN2CN3CCN(CN1C3)C2?
T/C [3]: 114 % of control; T/C [4]: 97 % of control

Which T/C (dose: 37.5 mg/kg/injection, schedule: Q04DX003 (sc), vehicle: saline with Tween-80) does the source give for Clc1cc(Cl)c(C[N+]23CN4CN(CN(C4)C2)C3)cc1Cl here?
The T/C was 106 % of control.

And the T/C (dose: 75.0 mg/kg/injection, schedule: Q04DX003 (sc), vehicle: saline with Tween-80)?
Its T/C is 120 % of control.

And the T/C (dose: 150.0 mg/kg/injection, schedule: Q04DX003 (sc), vehicle: saline with Tween-80)?
Its T/C is 110 % of control.

What about the T/C [2] of the same compound?
The T/C was 169 % of control.

Which results are given for COc1ccc(C(=O)C(CN(C)C)CN(C)C)cc1?
T/C (dose: 12.5 mg/kg/injection, schedule: Q04DX003 (sc), vehicle: saline): 101 % of control; T/C (dose: 25.0 mg/kg/injection, schedule: Q04DX003 (sc), vehicle: saline): 123 % of control; T/C (dose: 50.0 mg/kg/injection, schedule: Q04DX003 (sc), vehicle: saline): 85 % of control

What does the source list for COC1/C=C/C=C(/C)Cc2cc(O)c(Cl)c(c2)N(C)C(=O)CC(OC(=O)C(C)C)C2(C)OC2C(C)C2CC1(O)NC(=O)O2 (centres undefined)?
T/C (dose: 1.0 mg/kg/injection, schedule: Q04DX003 (sc), vehicle: saline + alcohol): 95 % of control; T/C (dose: 2.0 mg/kg/injection, schedule: Q04DX003 (sc), vehicle: saline + alcohol): 78 % of control and 87 % of control (2×); T/C (dose: 16.0 mg/kg/injection, schedule: Q04DX003 (sc), vehicle: saline + alcohol): 3 % of control and -8 % of control

How did the T/C (dose: 75.0 mg/kg/injection, schedule: Q04DX003 (ip), vehicle: Klucel (hydroxypropylcellulose) (HPC)) turn out when CCCCCNc1ncnc2c(C)[nH]nc12 was run?
Its T/C is 80 % of control.

And the T/C (dose: 150.0 mg/kg/injection, schedule: Q04DX003 (ip), vehicle: Klucel (hydroxypropylcellulose) (HPC))?
Its T/C is 112 % of control.

Which results are given for CC(=O)OCC1OC(OC2=C(CC=C(C)C)C(=O)c3ccccc3C2=O)C(OC(C)=O)C(OC(C)=O)C1OC(C)=O (centres undefined)?
T/C [5]: 194 % of control; T/C [6]: 52 % of control

Which T/C (dose: 150.0 mg/kg/injection, schedule: Q04DX003 (sc), vehicle: saline) does the source give for O=P1(NCCCl)OCCCN1CCCl (centres undefined) here?
The T/C was -95 % of control and -100 % of control.

What about the T/C (dose: 300.0 mg/kg/injection, schedule: Q04DX003 (sc), vehicle: saline) of the same compound?
The T/C was -100 % of control.

How did the T/C [4] turn out when CCCC(=O)Nc1ncnc2c1ncn2C1OC2COP(=O)(O)OC2C1OC(=O)CCC (centres undefined) was run?
The T/C was 159 % of control.

What about the T/C [7] of the same compound?
Its T/C is 124 % of control.

Which T/C (dose: 50.0 mg/kg/injection, schedule: Q01DX010 (sc), vehicle: Klucel (hydroxypropylcellulose) (HPC)) does the source give for O=C([CH-]C(=O)C(F)(F)F)c1ccccc1.O=C([CH-]C(=O)C(F)(F)F)c1ccccc1.O=C([CH-]C(=O)C(F)(F)F)c1ccccc1.O=C([CH-]C(=O)C(F)(F)F)c1ccccc1.[Eu+3].c1ccncc1 here?
Its T/C is 197 % of control.

What about the T/C (dose: 100.0 mg/kg/injection, schedule: Q01DX010 (sc), vehicle: Klucel (hydroxypropylcellulose) (HPC)) of the same compound?
Its T/C is 174 % of control.

And the T/C (dose: 200.0 mg/kg/injection, schedule: Q01DX010 (sc), vehicle: Klucel (hydroxypropylcellulose) (HPC))?
The T/C was 97 % of control.

And the T/C [5]?
The T/C was 178 % of control.

O=c1[nH]cnc2[nH]ncc12 was tested. Which T/C (dose: 150.0 mg/kg/injection, schedule: Q04DX003 (sc), vehicle: suspension in saline) did it give?
Its T/C is 46 % of control.

And the T/C [8]?
The T/C was 44 % of control.

And the T/C [9]?
The T/C was 119 % of control.

And the T/C [10]?
Its T/C is 112 % of control.

Which T/C [3] does the source give for CNNCc1ccc(C(=O)NC(C)C)cc1 here?
The T/C was 57 % of control and 69 % of control.

And the T/C [7]?
Its T/C is 7 % of control.

For CC1=CC(=NN=c2cc(C)n([O-])c(C)c2)C=C(C)[N+]1=O, which T/C [8] is on record?
The T/C was 90 % of control.

What about the T/C [9] of the same compound?
Its T/C is 36 % of control.

And the T/C [10]?
Its T/C is 112 % of control.

And the T/C (dose: 2400.0 mg/kg/injection, schedule: Q04DX003 (sc), vehicle: suspension in saline)?
The T/C was 32 % of control.

Which T/C [1] does the source give for Cn1/c2cc/c1=C(\c1ccc(S(=O)(=O)O)cc1)c1ccc([n-]1)/C(c1ccc(S(=O)(=O)O)cc1)=c1/cc/c([nH]1)=C(\c1ccc(S(=O)(=O)O)cc1)c1ccc([n-]1)/C=2c1ccc(S(=O)(=O)O)cc1.O.O=S(=O)(O)C(F)(F)F.[Cu+2] here?
Its T/C is 54 % of control.

And the T/C (dose: 600.0 mg/kg/injection, schedule: Q04DX003 (sc), vehicle: Klucel (hydroxypropylcellulose) (HPC))?
Its T/C is 94 % of control.

What does the source list for COC1C(O)CC(OC2CC(OC3CC(O[C@@H]4C(=O)c5c(cc6cc(OC7CC(OC8CC(O)C(O)C(C)O8)C(O)C(C)O7)c(C)c(O)c6c5O)C[C@H]4[C@H](OC)C(=O)[C@@H](O)[C@@H](C)O)OC(C)C3O)OC(C)C2O)OC1C (some centres undefined)?
T/C (dose: 0.18 mg/kg/injection, schedule: Q01DX010 (sc), vehicle: saline): 99 % of control; T/C (dose: 0.37 mg/kg/injection, schedule: Q04DX003 (sc), vehicle: saline): 123 % of control; T/C (dose: 0.75 mg/kg/injection, schedule: Q04DX003 (sc), vehicle: saline): 90 % of control; T/C (dose: 1.5 mg/kg/injection, schedule: Q04DX003 (sc), vehicle: saline): 61 % of control; T/C (dose: 3.0 mg/kg/injection, schedule: Q01DX010 (sc), vehicle: saline): -93 % of control; T/C (dose: 3.0 mg/kg/injection, schedule: Q04DX003 (sc), vehicle: saline): 35 % of control

Which T/C (dose: 9.38 mg/kg/injection, schedule: Q04DX003 (sc), vehicle: distilled water + Tween-80) does the source give for CCN(Cc1ccc(Cl)c(Cl)c1)c1ccc2nc(N)nc(N)c2c1C here?
The T/C was 93 % of control.

What about the T/C (dose: 18.75 mg/kg/injection, schedule: Q04DX003 (sc), vehicle: distilled water + Tween-80) of the same compound?
The T/C was 86 % of control.

For C=C(NC(=O)C(=C)NC(=O)c1csc(C2=NC3c4csc(n4)C4NC(=O)c5csc(n5)C(C(C)(O)C(C)O)NC(=O)C5CSC(=N5)/C(=C/C)NC(=O)C(C(C)O)NC(=O)c5csc(n5)C3(CC2)NC(=O)C(C)NC(=O)C(=C)NC(=O)C(C)NC(=O)C(C(C)CC)NC2C=Cc3c(C(C)O)cc(nc3C2O)C(=O)OC4C)n1)C(N)=O (centres undefined), which T/C [5] is on record?
Its T/C is 73 % of control.

What about the T/C [6] of the same compound?
The T/C was 98 % of control.

And the T/C (dose: 1600.0 mg/kg/injection, schedule: Q01DX010 (sc), vehicle: Klucel (hydroxypropylcellulose) (HPC))?
The T/C was 81 % of control.

And the T/C (dose: 3200.0 mg/kg/injection, schedule: Q01DX010 (sc), vehicle: Klucel (hydroxypropylcellulose) (HPC))?
The T/C was 117 % of control.
